# Measured values reported in PubChem BioAssay (NCI).
#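 Where inhibition never reached the appropriate level, the endpoint shown equals the highest concentration tested. Otherwise, values were interpolated linearly from a five-concentration, 48-hour dose response in 96-well plates. The concentration for 50% growth inhibition is given as GI50. TGI: total growth inhibition.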
# Experiments:
# Experiment in all cases: growth of human tumour cells (NCI), 48 h
# EKVX NSCLC = system: EKVX NSCLC
# RXF 393 renal = system: RXF 393 renal
# LOX IMVI melanoma = system: LOX IMVI melanoma
# SN12C renal = system: SN12C renal
# MOLT-4 leukemia = system: MOLT-4 leukemia
# CCRF-CEM leukemia = system: CCRF-CEM leukemia
# SK-MEL-28 melanoma = system: SK-MEL-28 melanoma
# MDA-N = system: MDA-N
# SF-268 CNS = system: SF-268 CNS
# T-47D breast = system: T-47D breast
Compound,TGI (EKVX NSCLC),TGI (RXF 393 renal),TGI (LOX IMVI melanoma),TGI (SN12C renal),TGI (MOLT-4 leukemia),TGI (CCRF-CEM leukemia),TGI (SK-MEL-28 melanoma),TGI (MDA-N),TGI (SF-268 CNS),TGI (T-47D breast),GI50 (EKVX NSCLC),GI50 (RXF 393 renal),GI50 (LOX IMVI melanoma),GI50 (SN12C renal),GI50 (MOLT-4 leukemia),GI50 (CCRF-CEM leukemia),GI50 (SK-MEL-28 melanoma),GI50 (MDA-N) [µg/mL],GI50 (SF-268 CNS),GI50 (T-47D breast)
CCN1CCN(c2nc3ccccc3nc2C(=O)c2ccc(OC)c(OC)c2)CC1,57.4 µM,29.8 µM,26.2 µM,> 100 µM,30.5 µM,46 µM,27.3 µM,97.7 µM,> 100 µM,> 100 µM,–,–,–,–,–,–,–,–,–,–
CC1C(=O)c2cc3c(cc2CCN(C)Cc2c1ccc1c2OCO1)OCO3 (configuration not stated),> 75 µg/mL,68.3 µg/mL,> 75 µg/mL,> 75 µg/mL,> 75 µg/mL,> 75 µg/mL,> 75 µg/mL,> 75 µg/mL,> 75 µg/mL,> 75 µg/mL,> 75 µg/mL,13.1 µg/mL,18.6 µg/mL,> 75 µg/mL,21.8 µg/mL,22 µg/mL,30.9 µg/mL,> 75,> 75 µg/mL,> 75 µg/mL
O=C1/C(=C/c2[nH]ncc2-c2ccc(Cl)cc2)C(=O)N(c2ccccc2)C1c1ccccc1 (configuration not stated),51.3 µM,49.4 µM,32.4 µM,85.7 µM,41 µM,53.7 µM,50.4 µM,36.9 µM,40.9 µM,17.3 µM,–,–,–,–,–,–,–,–,–,–
Clc1ccc(Nc2nc(Nc3ccccc3)nc(Nc3ccc(-c4cc(-c5ccc(Cl)cc5)on4)cc3)n2)cc1,88.4 µM,37.6 µM,> 100 µM,> 100 µM,> 100 µM,> 100 µM,> 100 µM,–,> 100 µM,> 100 µM,3.14 µM,11.3 µM,13.7 µM,24.8 µM,21 µM,11.8 µM,40.3 µM,–,43.4 µM,8.94 µM
COc1cccc(/C=N/[N-]C(N)=O)c1[O-].[Ni+2].[OH3+],2.57 µM,0.8 µM,2.15 µM,1.49 µM,1.58 µM,1.48 µM,1.72 µM,–,0.945 µM,–,–,–,–,–,–,–,–,–,–,–
CN(C)C(=O)OC1=CC2CCC(C1)N2C (configuration not stated),> 100 µM,> 100 µM,> 100 µM,> 100 µM,> 100 µM,> 100 µM,> 100 µM,> 100 µM,> 100 µM,> 100 µM,–,–,–,–,–,–,–,–,–,–
COc1cc(C2c3cc4c(cc3[C@@H](Nc3ccc(Oc5ccccc5)cc3)C3COC(=O)[C@H]23)OCO4)cc(OC)c1O (some centres not stated),> 100 µM,> 100 µM,> 100 µM,> 25.5 µM,2 µM,4.38 µM,> 100 µM,–,> 100 µM,–,–,–,–,–,–,–,–,–,–,–
CC1=C[C@@H](C)C[C@]2(C)CC[C@H](O2)[C@]23CC[C@](CO)(C[C@H](O2)[C@@H]2O[C@@](C)(CC2=O)[C@@H](O)[C@H]2CC[C@@]4(CCC[C@@H](O4)[C@H](C)C(=O)O[C@H]4C[C@H]([C@]5(O)OCC[C@H](C)[C@@H]5O)O[C@H]4C=C1)O2)O3,–,0.0801 µM,0.155 µM,> 10 µM,> 10 µM,> 9.53 µM,0.0391 µM,> 10 µM,0.0252 µM,> 10 µM,–,–,–,–,–,–,–,–,–,–
O=C(CC(c1ccccc1)C1C(=O)NC(=S)NC1=O)c1ccc([N+](=O)[O-])cc1 (configuration not stated),> 100 µM,–,> 100 µM,> 100 µM,> 100 µM,> 100 µM,> 100 µM,> 100 µM,> 100 µM,> 100 µM,–,–,–,–,–,–,–,–,–,–
O/C(=C\c1nc2ccccc2nc1/C=C(\O)c1ccc(F)cc1)c1ccc(F)cc1,> 100 µM,> 100 µM,> 100 µM,> 100 µM,> 100 µM,> 100 µM,> 100 µM,> 100 µM,> 100 µM,> 100 µM,–,–,–,–,–,–,–,–,–,–
CC(C)CC1c2[nH]c3ccccc3c2C[C@H]2C(=O)NC(CCCCNC(=O)OC(C)(C)C)C(=O)N12 (some centres not stated),> 100 µM,27.3 µM,> 100 µM,77.4 µM,51.8 µM,–,> 100 µM,> 100 µM,> 100 µM,16.1 µM,–,–,–,–,–,–,–,–,–,–
Cc1oc(N)c(S(=O)(=O)c2cc3ccccc3n(O)c2=N)c1C,> 100 µM,–,> 100 µM,> 100 µM,> 100 µM,–,> 100 µM,> 100 µM,> 100 µM,> 100 µM,–,–,–,–,–,–,–,–,–,–
O=C(Nc1ccc(-n2ccc3c(NC(=O)c4ccccc4)nccc32)cc1)Nc1cccc(C(F)(F)F)c1,22.1 µM,7.64 µM,10.9 µM,27 µM,10.9 µM,5.55 µM,21 µM,–,30.2 µM,31 µM,5.73 µM,2.24 µM,2.38 µM,13.4 µM,2.65 µM,1.27 µM,7.36 µM,–,10.5 µM,11.1 µM
N=c1ccc2nc(N)nn(O)c-2c1,> 100 µM,–,> 100 µM,> 100 µM,> 100 µM,> 100 µM,> 100 µM,> 100 µM,> 100 µM,> 100 µM,–,–,–,–,–,–,–,–,–,–
CC1(C(=O)O)C[C@](C)(C(=O)OCc2ccccc2)C[C@](C)(C(=O)OCc2ccccc2)C1 (some centres not stated),75.7 µM,56.4 µM,92.4 µM,> 100 µM,67.6 µM,> 100 µM,> 100 µM,> 100 µM,> 100 µM,> 100 µM,–,–,–,–,–,–,–,–,–,–
CS(C)(=O)=Nn1c(=O)n2n(c1=O)C1c3ccccc3C2c2ccccc21,> 100 µM,> 100 µM,> 100 µM,–,> 100 µM,> 100 µM,> 100 µM,> 100 µM,–,> 100 µM,–,–,–,–,–,–,–,–,–,–
Nc1cc(S(=O)(=O)O)cc2ccc(S(=O)(=O)O)cc12,> 100 µM,> 100 µM,> 100 µM,> 100 µM,–,> 100 µM,> 100 µM,> 100 µM,> 100 µM,> 100 µM,–,–,–,–,–,–,–,–,–,–

Compound,TGI (EKVX NSCLC),TGI (RXF 393 renal),TGI (LOX IMVI melanoma),TGI (SN12C renal),TGI (MOLT-4 leukemia),TGI (CCRF-CEM leukemia),TGI (SK-MEL-28 melanoma),TGI (MDA-N),TGI (SF-268 CNS),TGI (T-47D breast),GI50 (EKVX NSCLC),GI50 (RXF 393 renal),GI50 (LOX IMVI melanoma),GI50 (SN12C renal),GI50 (MOLT-4 leukemia),GI50 (CCRF-CEM leukemia),GI50 (SK-MEL-28 melanoma),GI50 (MDA-N) [µg/mL],GI50 (SF-268 CNS),GI50 (T-47D breast)
Cc1ccc2nc(-c3ccc(NC(=O)c4ccc(N)cc4)c(S(=O)(=O)O)c3)sc2c1,> 100 µM,> 100 µM,> 100 µM,> 100 µM,> 100 µM,> 100 µM,> 100 µM,> 100 µM,> 100 µM,> 100 µM,–,–,–,–,–,–,–,–,–,–
N#Cc1ccccc1C#C/C=C\C#Cc1ccccc1N,> 57.3 µM,> 23.7 µM,> 35.4 µM,12.5 µM,> 100 µM,> 100 µM,> 74 µM,–,> 56.2 µM,> 100 µM,10 µM,7 µM,4.04 µM,2.41 µM,3.68 µM,1.6 µM,9.78 µM,–,9.12 µM,8.72 µM
Cn1c2[n+](c3nc(N)[nH]c(=O)c31)C1OC(C2)C(O)C1O (configuration not stated),> 100 µM,> 100 µM,> 100 µM,> 100 µM,> 100 µM,> 100 µM,> 100 µM,–,> 100 µM,–,–,–,–,–,–,–,–,–,–,–
COc1ccc(-c2nn(-c3ccc(NC(=O)c4cc(Cl)cc(Cl)c4)cc3)cc2-c2ccncc2)cc1Cl,–,1.23 µM,> 100 µM,> 100 µM,> 100 µM,–,> 100 µM,–,> 100 µM,> 100 µM,–,0.362 µM,3.2 µM,> 100 µM,2.83 µM,–,> 100 µM,–,> 100 µM,> 100 µM
O=C(O)C1CCCCN1C(=O)Cc1c[nH]c2ccccc12 (configuration not stated),> 100 µM,> 100 µM,> 100 µM,> 100 µM,> 100 µM,> 100 µM,> 100 µM,> 100 µM,> 100 µM,> 100 µM,–,–,–,–,–,–,–,–,–,–
Cc1cc2ccc(OC(=O)c3ccc(N=C(N)N)cc3)cc2oc1=O,> 100 µM,> 100 µM,> 100 µM,64 µM,54.4 µM,> 100 µM,58.6 µM,83.8 µM,73.8 µM,95 µM,–,–,–,–,–,–,–,–,–,–
CC(=O)Nc1ccc(C(=O)NN2C(=O)C(Cl)C2c2cccc([N+](=O)[O-])c2)cc1 (configuration not stated),–,–,–,–,> 100 µM,> 100 µM,> 100 µM,–,> 100 µM,–,–,–,–,–,–,–,–,–,–,–
Cc1n[n+]([O-])c(C)cc1[N+](=O)[O-],45.4 µM,66.3 µM,57.9 µM,28.1 µM,–,9.32 µM,31.9 µM,–,> 100 µM,35.3 µM,–,–,–,–,–,–,–,–,–,–
COC(=O)C1CC23C4=C(CCC41)CCC1CN4CC(C)C(CC(OC(C)=O)C12COC(C)=O)C43O (configuration not stated),> 100 µM,> 100 µM,> 100 µM,> 100 µM,> 100 µM,> 100 µM,> 100 µM,> 100 µM,> 100 µM,> 100 µM,–,–,–,–,–,–,–,–,–,–
CCOC(=O)c1c(-c2cccc(Cl)c2)c(C(=O)OC)c(C)c2sc(C=O)nc12,31.9 µM,44.6 µM,28.9 µM,30.8 µM,48.1 µM,37 µM,34.5 µM,56.7 µM,38.6 µM,45.6 µM,–,–,–,–,–,–,–,–,–,–
CCOCC(=O)N(C)c1cccc2c3c(n(C)c12)CCCCC3,> 100 µM,> 100 µM,> 100 µM,> 100 µM,> 100 µM,> 100 µM,> 100 µM,–,> 100 µM,–,–,–,–,–,–,–,–,–,–,–
OCCCSCCO,> 100 µM,–,> 100 µM,> 100 µM,> 100 µM,> 100 µM,> 100 µM,> 100 µM,> 100 µM,> 100 µM,–,–,–,–,–,–,–,–,–,–
CC1=CC(O)C(C(O)(C(F)(F)F)C(F)(F)F)C(C)(C)C1 (configuration not stated),> 10 µM,> 10 µM,> 10 µM,> 10 µM,> 10 µM,> 10 µM,> 10 µM,> 10 µM,> 10 µM,> 10 µM,–,–,–,–,–,–,–,–,–,–
O=C(O)C(O)C(O)C(O)C(O)C(=O)O (configuration not stated),> 100 µM,> 100 µM,> 100 µM,> 100 µM,> 100 µM,> 100 µM,> 100 µM,> 100 µM,> 100 µM,> 100 µM,–,–,–,–,–,–,–,–,–,–
COC(=O)C1=C(OC(=O)/C=C/c2ccc(Cl)cc2)C(C(=O)OC)[C@]2(O)[C@@H](C(=O)OC)[C@H]1C[C@@H](c1ccccc1)[C@@H]2C(=O)OC (some centres not stated),53.2 µM,> 100 µM,> 70.4 µM,> 29.5 µM,> 100 µM,> 100 µM,> 100 µM,> 23.1 µM,> 25.4 µM,> 100 µM,–,–,–,–,–,–,–,–,–,–
O=C1C2Cc3c(n(C(=O)c4ccccc4)c4ccccc34)CC2C(=O)N1c1ccc(Nc2ccc(N3C(=O)C4Cc5c(n(C(=O)c6ccccc6)c6ccccc56)CC4C3=O)cc2)cc1 (configuration not stated),> 100 µM,> 100 µM,> 100 µM,> 100 µM,> 100 µM,> 100 µM,> 100 µM,> 100 µM,> 100 µM,> 100 µM,–,–,–,–,–,–,–,–,–,–
